This is an account of results in patent US12691100B2, “NMT inhibitor treatment of a senescence-associated disease or disorder of the liver” (Imperial College Innovations Limited, priority 2020, dated 2026).

The test system of one assay is IMR90 cells. The experiment in a line: Senolytic survival assay, doxorubicin-induced senescence. The settings on record: doxorubicin or DMSO; compounds added 7 days after induction; read 7 days later; FIGS. 3A-B. It is filed as cell-based, human. The procedure:
IMR90 cells were used to generate inducible ER:RAS (hereinafter iRAS) cells to model Oncogene induced senescence (OIS), through retroviral infection of pLNC-ER:RAS-neo into IMR90 cells followed by selection with Neomycin. IMR90 cells containing the pLNC-ER:RAS plasmid backbone pLXSN were infected in parallel to assess leakiness in the pLNC-ER:RAS system. Treatment with 100 nM 4OHT (Sigma, in DMSO) was used to induce IMR90 ER:RAS cells to undergo oncogene induced senescence (OIS). […]
High-throughput microscopy survival assay—To assess senolytic effect of drugs, cells were cultured for 7 days, culture media was changed to DM0.5 media and drugs in DMSO were added (<5% v/v final concentration), drugs were replenished after 3 days if assay length was longer than 72 h. […] Image acquisition of DAPI stained cells was performed on an automated InCell Analyser 2000 (GE Healthcare®) and high-content analysis on the InCell Investigator 2.7.3 software used to quantify number of DAPI positive cells per well. […] Survival was measured as cell counts relative to DMSO treated quiescent or senescent cells.
IMR90 cells were treated with doxorubicin (to induce senescence), or DMSO (as a control). […] Senolytic activity of inhibitors was determined 7 days after adding the drugs with replenishment after 3 days, cells were fixed, imaged and cells numbers were quantified using high throughput microscopy. […]

The test system of the next assay is senescent cells. Put plainly: Senolytic activity in old mice (senescent-associated β-galactosidase staining). It is filed as in vivo, C57BL/6J female mice. The settings on record: ~26 month female mice, 10 mg/kg i.p., versus vehicle. The protocol: Lung and liver samples frozen in optimal cutting temperature (OCT) were cryosectioned (15 μM) and frozen sections fixed in ice-cold 0.5% Glutaraldehyde (w/v, PBS) for 15 min and washed 1 mM MgCl2/PBS (pH 6.0) for 5 min. β-galactosidase activity was stained for with X-gal staining solution (1 mg ml^−1 X-gal, ThermoFisher Scientific, 5 mM K3(Fe(CN)6), 5 mM K4(Fe(CN)6)) for 18 h at 37° C. Slides were dehydrated and coverslips mounted prior to being imaged using 20× brightfield objective on Zeiss AxioScan Z.1 slide scanner. ImageJ was used to quantify staining by measuring the β-gal stained area as a percentage of the total tissue area excluding luminal spaces.

In the case of `Cc1nn(C)c(C)c1CCOc1c(-c2ccc3c(c2)c(CN(C)C)nn3C)ccc(F)c1F` [Compound 1, 1-(5-(3,4-difluoro-2-(2-(1,3,5-trimethyl-1H-pyrazol-4-yl)ethoxy)phenyl)-1-methyl-1H-indazol-3-yl)-N,N-dimethylmethanamine], in the assay on IMR90 cells, the “Survival (cell counts relative to DMSO), senescent versus control cells” value was “selectively kill senescent cells induced to senescence by doxorubicin”.
Consider `Cc1c(NS(=O)(=O)c2c(Cl)cc(-c3ccnc(N4CCNCC4)c3)cc2Cl)c(CC(C)C)nn1C` [Compound 2], for which the “Senescent cells in livers (senescent-associated β-galactosidase staining)” value in the assay on senescent cells (FIG. 17B) is reported as “lower levels of senescent cells”. In addition, the “Senescent cells in lungs (senescent-associated β-galactosidase staining)” value in the assay on senescent cells (FIG. 17C) is recorded as “lower levels of senescent cells”.
